According to patent US9981037B2, “Combination therapy of beta-glycolipids and antibodies for the treatment of immune-related disorders” (HADASIT MEDICAL RESEARCH SERVICES AND DEVELOPMENT LTD., priority 2008, dated 2018):

Tested on: IgG and IgM repertoire
Test: Antigen microarrays of serum IgG and IgM reactivities
Type: in vivo, human
Source text: A panel of self and non-self proteins, peptides and lipids were spotted onto Epoxi slides (TeleChem, CA, USA) as described [Quintana, F. J. et al. Proc. Natl. Acad. Sci. USA 101 Suppl 2:14615-14621 (2004)]. Since several of the self-antigens included in the antigen microarrays used by the invention, are targeted by natural antibodies [Coutinho, A. et al. Curr. Opin. Immunol. 7:812-818 (1995); Quintana, F. J. and Cohen, I. R. Biomed Pharmacother 58:276-281 (2004)], the inventors could detect both the up and the down-regulation of preexisting IgG and IgM reactivities. Sera from OKT3-treated subjects were assayed at a 1/10 dilution and the IgG or IgM reactivities displaying significant changes upon treatment were identified. Briefly, antigens were spotted in replicates of 6, the microarrays were blocked for 1 h at 37° C. with 1% bovine serum albumin, and incubated for 2 hr at 37° C. with a 1:200 dilution of the test serum in blocking buffer. The arrays were then washed and incubated for 45 minutes at 37° C. with a 1:500 dilution of detection antibodies: a goat […] Cy3-conjugated antibody or a goat anti-mouse IgM Cy5-conjugated antibody (Jackson ImmunoResearch, West Grove, Pa.). The arrays were scanned with a ScanArray 4000× scanner (GSI Luminomics, Billerica, Mass., USA) and the IgM and IgG results were recorded separately.
Raw data were normalized and analyzed using the GeneSpring software (Silicon Genetics, Redwood City, Calif.). Antigen reactivity was defined by the mean intensity of binding to the replicates of that antigen on the microarray. The data were analyzed with the Wilcoxon rank-sum test, a non-parametric test robust to outliers, using the Benjamini and Hochberg false discovery method with a p-value of 0.2 to determine significance [Stekel, D. Microarray Bioinformatics. Cambridge University Press, Cambridge (2003)]. To perform the hierarchical clustering of the antibody reactivities a pair wise average linkage algorithm based on Pearson's correlation was used as a distance measure [Stekel (2003) ibid.]
Antigen microarrays constitute a new tool for studying the immune system in health [Quintana, F. J. and Cohen, I. R. Biomed Pharmacother 58:276-281 (2004); Merbl, Y. et al. Clin. Invest. 117:712-718 (2007); Quintana, F. J. et al. J. Autoimmun. 21:65-75 (2003)] and disease [Goldschmidt, Y. et al. Technical Report MCS03-071-018 (2003); Hueber, W. et al. Arthritis Rheum. 52:2645-2655 (2005)]. The inventors therefore used an antigen microarray containing a broad panel of antigens that included self and non self proteins, heat shock proteins, and infectious agents to investigate the effects of oral OKT3 on the immune repertoire. Both increases and decreases of immunoglobulin reactivities were measured.
No changes occurred in the IgM repertoire.

In the case of “OKT3: murine monoclonal anti-CD3 antibody (Orthoclone OKT-3, Ortho Biotech)”, the IgG reactivities affected (0.2 mg dose) is reported as 4, the IgG reactivities affected (1.0 mg dose) is reported as 37 and the “downregulated IgG reactivities” value (1.0 mg dose) is reported as 19. The “up regulated IgG reactivities” value (1.0 mg dose) was 18, the “downregulated IgG reactivities” value (5 mg dose) was 18 and the “up-regulated IgG reactivities” value (5 mg dose) was 47. The IgG reactivities affected (5.0 mg dose) was 65 and the “changes in the IgM repertoire” value (oral OKT3) was “No changes”.
